Patent US20260274814A1, “THIENYL COMPOUNDS FOR THE TREATMENT OF A CENTRAL NERVOUS SYSTEM DISEASE OR DISORDER” (Coreterra Therapeutics, Inc., priority 2023, published 2026)
Where a name gives a salt, the structure may show the parent alone.

Test system: mice
Experiment: Neuropharmacological Assay (SmartCube): automated behavioral signature of compound-treated mice compared with a database of reference drug classes
Format: in vivo
Conditions: for AG / AN / AP / AX / CE / HL / MS / PS / SH / AD / UK: probability that activity matches this class of agents, 3.0 mg/kg i.p., 15 min before test; for minimal effective dose: Mus musculus, ip, read-out: MED (minimal effective dose)
Summary of the method: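 Compounds in N-methyl-2-pyrrolidone/polyethylene glycol/propylene glycol were given i.p. 15 min before testing, at 3 doses; values shown are for 3.0 mg/kg. Video-captured behaviour was matched by algorithm against reference drug classes, giving a probability per class. MED: lowest dose reaching ≥45% total activity.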

[1] = dose having 45% or more total activity in SmartCube, i.p., if only one dose was tested, that dose is shown

| Structure (SMILES) | MED (minimal effective dose) [1] | AG | AN | AP | AX | CE | HL | MS | PS | SH | AD (3 mg/kg) | UK (3 mg/kg) | minimal effective dose [1] | AD | UK |
| --- | --- | --- | --- | --- | --- | --- | --- | --- | --- | --- | --- | --- | --- | --- | --- |
| CNC1CCc2c(C(F)(F)F)sc(C)c2C1 (single isomer, unassigned; enantiomer 2) [Compound 107, N, 3-dimethyl-1-(trifluoromethyl)-4,5,6,7-tetrahydro-2-benzothiophen-5-amine hydrochloride enantiomer 2] | 10 mpk | ND (^ <4%) | ND (^ <4%) | ND (^ <4%) | ND (^ <4%) | ND (^ <4%) | ND (^ <4%) | ND (^ <4%) | ND (^ <4%) | ND (^ <4%) | ND (^ <4%) | ND (^ <4%) | – | – | – |
| CNC1Cc2cscc2C1.Cl [Compound 21, N-methyl-5,6-dihydro-4H-cyclopenta[c]thiophen-5-amine hydrochloride] | – | ND (^ <4%) | ND (^ <4%) | ND (^ <4%) | ND (^ <4%) | ND (^ <4%) | ND (^ <4%) | ND (^ <4%) | ND (^ <4%) | ND (^ <4%) | – | – | 3 mg/kg | ND (^ <4%) | +++ (≥49%) |
| CNC1CC=Cc2ccsc2C1.Cl (stereo not drawn) [Compound 24, N-methyl-7,8-dihydro-6H-cyclohepta[b]thiophen-7-amine hydrochloride] | – | ND (^ <4%) | ND (^ <4%) | ND (^ <4%) | ND (^ <4%) | ND (^ <4%) | ND (^ <4%) | ND (^ <4%) | ND (^ <4%) | +++ (≥49%) | – | – | 3 mg/kg | ND (^ <4%) | ND (^ <4%) |
| CNC1CCc2sc(F)cc2C1 (stereo not drawn) [Compound 82, 2-fluoro-N-methyl-4,5,6,7-tetrahydrobenzothiophen-5-amine hydrochloride] | – | ND (^ <4%) | ND (^ <4%) | + (≥4%) | ND (^ <4%) | ND (^ <4%) | ND (^ <4%) | ND (^ <4%) | ND (^ <4%) | ND (^ <4%) | – | – | 3 mg/kg | ++ (≥24%) | ++ (≥24%) |
| CNC1COc2csc(Cl)c2C1 (stereo not drawn) [Compound 87, 5-chloro-N-methyl-3,4-dihydro-2H-thieno[3,4-b]pyran-3-amine hydrochloride] | – | ND (^ <4%) | ND (^ <4%) | +++ (≥49%) | ND (^ <4%) | ND (^ <4%) | ND (^ <4%) | ND (^ <4%) | ND (^ <4%) | ND (^ <4%) | – | – | 3 mg/kg | ND (^ <4%) | ND (^ <4%) |
| CNC1COc2csc(C)c2C1 (stereo not drawn) [Compound 88, N, 5-dimethyl-3,4-dihydro-2H-thieno[3,4-b]pyran-3-amine hydrochloride] | – | ND (^ <4%) | ND (^ <4%) | ++++ (≥74%) | ND (^ <4%) | ND (^ <4%) | ND (^ <4%) | ND (^ <4%) | ND (^ <4%) | ND (^ <4%) | – | – | 3 mg/kg | ND (^ <4%) | ND (^ <4%) |
| NC1CCc2csc(Cl)c2C1 (stereo not drawn) [Compound 89, 3-chloro-4,5,6,7-tetrahydro-2-benzothiophen-5-amine hydrochloride] | – | ND (^ <4%) | ND (^ <4%) | ND (^ <4%) | + (≥4%) | ND (^ <4%) | ND (^ <4%) | ++ (≥24%) | ND (^ <4%) | ND (^ <4%) | – | – | 3 mg/kg | ND (^ <4%) | ND (^ <4%) |
| CNC1CCc2scc(Cl)c2C1 (stereo not drawn) [Compound 90, 3-chloro-N-methyl-4,5,6,7-tetrahydrobenzothiophen-5-amine hydrochloride] | – | ND (^ <4%) | ND (^ <4%) | +++ (≥49%) | ND (^ <4%) | ND (^ <4%) | ND (^ <4%) | ND (^ <4%) | ND (^ <4%) | ND (^ <4%) | – | – | 3 mg/kg | ND (^ <4%) | ND (^ <4%) |
| CNC1CCc2c(sc(C(F)(F)F)c2C)C1 (stereo not drawn) [Compound 91, N, 3-dimethyl-2-(trifluoromethyl)-4,5,6,7-tetrahydrobenzothiophen-6-amine hydrochloride] | – | ND (^ <4%) | ND (^ <4%) | ND (^ <4%) | ND (^ <4%) | ND (^ <4%) | ND (^ <4%) | ND (^ <4%) | ND (^ <4%) | ND (^ <4%) | – | – | > 3 mg/kg | ND (^ <4%) | ++ (≥24%) |
| CNC1CCc2c(sc(Cl)c2C)C1 (stereo not drawn) [Compound 92, 2-chloro-N, 3-dimethyl-4,5,6,7-tetrahydrobenzothiophen-6-amine hydrochloride] | – | ND (^ <4%) | ND (^ <4%) | ND (^ <4%) | ND (^ <4%) | ND (^ <4%) | ND (^ <4%) | ND (^ <4%) | ND (^ <4%) | ND (^ <4%) | – | – | 3 mg/kg | ++++ (≥74%) | ND (^ <4%) |
| CNC1CCc2csc(C#N)c2C1 (stereo not drawn) [Compound 93, 6-(methylamino)-4,5,6,7-tetrahydro-2-benzothiophene-1-carbonitrile hydrochloride] | – | ND (^ <4%) | ND (^ <4%) | ++++ (≥74%) | ND (^ <4%) | ND (^ <4%) | ND (^ <4%) | ND (^ <4%) | ND (^ <4%) | ND (^ <4%) | – | – | 0.1 mg/kg | ND (^ <4%) | ND (^ <4%) |
| CNC1CCc2c(Cl)csc2C1 (stereo not drawn) [Compound 94, 3-chloro-N-methyl-4,5,6,7-tetrahydrobenzothiophen-6-amine hydrochloride] | – | ND (^ <4%) | ND (^ <4%) | ++++ (≥74%) | ND (^ <4%) | ND (^ <4%) | ND (^ <4%) | ND (^ <4%) | ND (^ <4%) | ND (^ <4%) | – | – | 3 mg/kg | ND (^ <4%) | ND (^ <4%) |
| CNC1CCc2csc(C3CC3)c2C1 (stereo not drawn) [Compound 95, 3-cyclopropyl-N-methyl-4,5,6,7-tetrahydro-2-benzothiophen-5-amine hydrochloride] | – | ND (^ <4%) | ND (^ <4%) | ++ (≥24%) | ND (^ <4%) | ND (^ <4%) | ND (^ <4%) | ND (^ <4%) | ND (^ <4%) | ND (^ <4%) | – | – | 1 mg/kg | +++ (≥49%) | ND (^ <4%) |
| CNC1CCc2cc(Cl)sc2C1 (stereo not drawn) [Compound 96, 2-chloro-N-methyl-4,5,6,7-tetrahydrobenzothiophen-6-amine hydrochloride] | – | ND (^ <4%) | ND (^ <4%) | +++ (≥49%) | ND (^ <4%) | ND (^ <4%) | ND (^ <4%) | ND (^ <4%) | ND (^ <4%) | ND (^ <4%) | – | – | 3 mg/kg | ND (^ <4%) | ND (^ <4%) |
| CNC1CCc2sc(Cl)cc2C1 (stereo not drawn) [Compound 97, 2-chloro-N-methyl-4,5,6,7-tetrahydrobenzothiophen-5-amine hydrochloride] | – | ND (^ <4%) | ND (^ <4%) | ND (^ <4%) | ND (^ <4%) | ND (^ <4%) | ND (^ <4%) | ND (^ <4%) | ND (^ <4%) | ND (^ <4%) | – | – | 1 mg/kg | ++++ (≥74%) | ND (^ <4%) |
| CNC1CCc2c(F)sc(C)c2C1 (stereo not drawn) [Compound 100, 1-fluoro-N, 3-dimethyl-4,5,6,7-tetrahydro-2-benzothiophen-5-amine hydrochloride] | – | ND (^ <4%) | ND (^ <4%) | ++++ (≥74%) | ND (^ <4%) | ND (^ <4%) | ND (^ <4%) | ND (^ <4%) | ND (^ <4%) | ND (^ <4%) | – | – | 1 mg/kg | ND (^ <4%) | ND (^ <4%) |
| CNC1CCc2scc(Br)c2C1 (stereo not drawn) [Compound 108, 3-bromo-N-methyl-4,5,6,7-tetrahydrobenzothiophen-5-amine hydrochloride] | – | ND (^ <4%) | ND (^ <4%) | ++++ (≥74%) | ND (^ <4%) | ND (^ <4%) | ND (^ <4%) | ND (^ <4%) | ND (^ <4%) | ND (^ <4%) | – | – | < 3 mg/kg | ND (^ <4%) | ND (^ <4%) |
